Source: paper PMC10239507, “Development of allosteric and selective CDK2 inhibitors for contraception with negative cooperativity to cyclin binding” (Nature Communications, 2023)

Key:
Assay in all cases: biochemical
[1] = biological target: T1, 371 kinases (kinase named in each endpoint) (Homo sapiens, UniProt O00444); details: PLK4/SAK
T1 construct: purchased Reaction Biology

[2] = biological target: T2, 371 kinases (kinase named in each endpoint) (Homo sapiens, UniProt O14920); details: IKKb/IKBKB
T2 construct: purchased Reaction Biology

[3] = biological target: T3, 371 kinases (kinase named in each endpoint) (Homo sapiens, UniProt O43293); details: ZIPK/DAPK3
T3 construct: purchased Reaction Biology

[4] = biological target: T4, 371 kinases (kinase named in each endpoint) (Homo sapiens, UniProt O75116); details: ROCK2
T4 construct: purchased Reaction Biology

[5] = biological target: T5, 371 kinases (kinase named in each endpoint) (Homo sapiens, UniProt O75385); details: ULK1
T5 construct: purchased Reaction Biology

[6] = biological target: T6, 371 kinases (kinase named in each endpoint) (Homo sapiens, UniProt O95382); details: MEKK6
T6 construct: purchased Reaction Biology

[7] = biological target: T7, 371 kinases (kinase named in each endpoint) (Homo sapiens, UniProt O96017); details: CHK2
T7 construct: purchased Reaction Biology

[8] = biological target: T8, 371 kinases (kinase named in each endpoint) (Homo sapiens, UniProt P04049); details: RAF1
T8 construct: purchased Reaction Biology

[9] = biological target: T9, 371 kinases (kinase named in each endpoint) (Homo sapiens, UniProt P04629); details: TRKA
T9 construct: purchased Reaction Biology

[10] = biological target: T10, 371 kinases (kinase named in each endpoint) (Homo sapiens, UniProt P08631); details: HCK
T10 construct: purchased Reaction Biology

[11] = biological target: T11, 371 kinases (kinase named in each endpoint) (Homo sapiens, UniProt P10398); details: ARAF
T11 construct: purchased Reaction Biology

[12] = biological target: T12, 371 kinases (kinase named in each endpoint) (Homo sapiens, UniProt P16591); details: FER
T12 construct: purchased Reaction Biology

[13] = biological target: T13, 371 kinases (kinase named in each endpoint) (Homo sapiens, UniProt P22455); details: FGFR4
T13 construct: purchased Reaction Biology

[14] = biological target: T14, 371 kinases (kinase named in each endpoint) (Homo sapiens, UniProt P22607); details: FGFR3
T14 construct: purchased Reaction Biology

[15] = biological target: T15, 371 kinases (kinase named in each endpoint) (Homo sapiens, UniProt P22612); details: PKACG
T15 construct: purchased Reaction Biology

[16] = biological target: T16, 371 kinases (kinase named in each endpoint) (Homo sapiens, UniProt P35916); details: FLT4/VEGFR3
T16 construct: purchased Reaction Biology

[17] = biological target: T17, 371 kinases (kinase named in each endpoint) (Homo sapiens, UniProt P36888); details: FLT3
T17 construct: purchased Reaction Biology

[18] = biological target: T18, 371 kinases (kinase named in each endpoint) (Homo sapiens, UniProt P41240); details: CSK
T18 construct: purchased Reaction Biology

[19] = biological target: T19, 371 kinases (kinase named in each endpoint) (Homo sapiens, UniProt P45985); details: MKK4
T19 construct: purchased Reaction Biology

[20] = biological target: T20, 371 kinases (kinase named in each endpoint) (Homo sapiens, UniProt P49137); details: MAPKAPK2
T20 construct: purchased Reaction Biology

[21] = biological target: T21, 371 kinases (kinase named in each endpoint) (Homo sapiens, UniProt P51956); details: NEK3
T21 construct: purchased Reaction Biology

[22] = biological target: T22, 371 kinases (kinase named in each endpoint) (Homo sapiens, UniProt P54756); details: EPHA5
T22 construct: purchased Reaction Biology

[23] = biological target: T23, 371 kinases (kinase named in each endpoint) (Homo sapiens, UniProt Q02750); details: MEK1
T23 construct: purchased Reaction Biology

[24] = biological target: T24, 371 kinases (kinase named in each endpoint) (Homo sapiens, UniProt Q14012); details: CAMK1A
T24 construct: purchased Reaction Biology

[25] = biological target: T25, 371 kinases (kinase named in each endpoint) (Homo sapiens, UniProt Q15303); details: ERBB4/HER4
T25 construct: purchased Reaction Biology

[26] = biological target: T26, 371 kinases (kinase named in each endpoint) (Homo sapiens, UniProt Q15759); details: P38B/MAPK11
T26 construct: purchased Reaction Biology

[27] = biological target: T27, 371 kinases (kinase named in each endpoint) (Homo sapiens, UniProt Q16539); details: P38A/MAPK14
T27 construct: purchased Reaction Biology

[28] = biological target: T28, 371 kinases (kinase named in each endpoint) (Homo sapiens, UniProt Q8TD19); details: NEK9
T28 construct: purchased Reaction Biology

[29] = biological target: T29, 371 kinases (kinase named in each endpoint) (Homo sapiens, UniProt Q8TDX7); details: NEK7
T29 construct: purchased Reaction Biology

[30] = biological target: T30, 371 kinases (kinase named in each endpoint) (Homo sapiens, UniProt Q96L34); details: MARK4
T30 construct: purchased Reaction Biology

[31] = biological target: T31, 371 kinases (kinase named in each endpoint) (Homo sapiens, UniProt Q96SB4); details: SRPK1
T31 construct: purchased Reaction Biology

[32] = biological target: T32, 371 kinases (kinase named in each endpoint) (Homo sapiens, UniProt Q99759); details: MEKK3
T32 construct: purchased Reaction Biology

[33] = biological target: T33, 371 kinases (kinase named in each endpoint) (Homo sapiens, UniProt Q99986); details: VRK1
T33 construct: purchased Reaction Biology

[34] = biological target: T34, 371 kinases (kinase named in each endpoint) (Homo sapiens, UniProt Q9BYT3); details: STK33
T34 construct: purchased Reaction Biology

[35] = biological target: T35, 371 kinases (kinase named in each endpoint) (Homo sapiens, UniProt Q9NY57); details: STK32B/YANK2
T35 construct: purchased Reaction Biology

[36] = biological target: T36, 371 kinases (kinase named in each endpoint) (Homo sapiens, UniProt Q9P1W9); details: PIM2
T36 construct: purchased Reaction Biology

[37] = biological target: T37, 371 kinases (kinase named in each endpoint) (Homo sapiens, UniProt Q9UM73); details: ALK
T37 construct: purchased Reaction Biology

T28 sequence (Q8TD19 whole entry): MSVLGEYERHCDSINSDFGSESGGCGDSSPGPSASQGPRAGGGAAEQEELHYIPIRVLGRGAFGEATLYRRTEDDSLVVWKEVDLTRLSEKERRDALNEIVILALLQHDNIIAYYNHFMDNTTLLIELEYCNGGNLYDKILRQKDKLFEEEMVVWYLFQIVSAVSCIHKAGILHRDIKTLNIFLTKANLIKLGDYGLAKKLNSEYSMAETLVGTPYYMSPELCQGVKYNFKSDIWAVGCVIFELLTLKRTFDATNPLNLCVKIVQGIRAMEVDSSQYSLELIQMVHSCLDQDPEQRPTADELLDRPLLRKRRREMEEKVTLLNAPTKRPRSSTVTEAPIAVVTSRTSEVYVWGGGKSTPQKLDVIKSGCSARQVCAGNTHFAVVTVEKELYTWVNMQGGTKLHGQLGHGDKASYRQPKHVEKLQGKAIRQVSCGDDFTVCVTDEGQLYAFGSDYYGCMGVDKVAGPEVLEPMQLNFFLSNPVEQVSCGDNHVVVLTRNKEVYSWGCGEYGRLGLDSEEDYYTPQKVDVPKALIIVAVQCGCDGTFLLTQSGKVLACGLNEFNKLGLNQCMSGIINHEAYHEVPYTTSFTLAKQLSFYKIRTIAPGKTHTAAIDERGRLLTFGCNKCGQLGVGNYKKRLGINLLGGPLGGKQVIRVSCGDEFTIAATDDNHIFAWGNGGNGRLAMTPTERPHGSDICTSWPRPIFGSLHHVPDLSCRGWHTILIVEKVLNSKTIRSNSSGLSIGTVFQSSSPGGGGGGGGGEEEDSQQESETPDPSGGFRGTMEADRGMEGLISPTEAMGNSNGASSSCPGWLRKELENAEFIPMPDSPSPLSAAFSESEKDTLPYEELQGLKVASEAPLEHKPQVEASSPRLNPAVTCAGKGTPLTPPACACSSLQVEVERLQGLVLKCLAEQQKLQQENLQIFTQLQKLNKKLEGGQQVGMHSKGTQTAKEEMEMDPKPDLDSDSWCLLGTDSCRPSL
T33 sequence (Q99986 whole entry): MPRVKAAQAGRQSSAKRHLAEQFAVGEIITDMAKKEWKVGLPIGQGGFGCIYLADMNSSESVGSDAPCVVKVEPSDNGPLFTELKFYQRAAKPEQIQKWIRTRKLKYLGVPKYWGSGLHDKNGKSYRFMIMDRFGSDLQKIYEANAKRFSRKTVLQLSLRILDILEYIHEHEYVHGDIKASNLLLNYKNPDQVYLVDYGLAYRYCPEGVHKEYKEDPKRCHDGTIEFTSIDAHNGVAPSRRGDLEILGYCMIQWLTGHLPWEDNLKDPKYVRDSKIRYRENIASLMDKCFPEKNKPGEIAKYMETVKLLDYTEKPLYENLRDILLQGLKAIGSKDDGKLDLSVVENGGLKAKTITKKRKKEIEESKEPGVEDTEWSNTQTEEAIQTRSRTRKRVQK
T34 sequence (Q9BYT3 whole entry): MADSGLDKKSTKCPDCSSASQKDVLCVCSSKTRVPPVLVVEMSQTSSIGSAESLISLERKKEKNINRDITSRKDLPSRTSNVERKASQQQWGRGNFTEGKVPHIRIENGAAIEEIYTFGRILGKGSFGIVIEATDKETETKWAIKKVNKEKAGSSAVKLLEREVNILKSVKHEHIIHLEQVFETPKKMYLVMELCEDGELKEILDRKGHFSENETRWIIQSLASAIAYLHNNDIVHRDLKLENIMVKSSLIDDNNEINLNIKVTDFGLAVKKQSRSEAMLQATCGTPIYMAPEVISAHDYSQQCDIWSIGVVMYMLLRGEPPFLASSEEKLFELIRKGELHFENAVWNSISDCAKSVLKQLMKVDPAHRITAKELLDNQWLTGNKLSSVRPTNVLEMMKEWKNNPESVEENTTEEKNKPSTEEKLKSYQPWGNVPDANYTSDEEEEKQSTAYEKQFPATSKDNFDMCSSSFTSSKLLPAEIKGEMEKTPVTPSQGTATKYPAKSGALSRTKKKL
T4 sequence (O75116 whole entry): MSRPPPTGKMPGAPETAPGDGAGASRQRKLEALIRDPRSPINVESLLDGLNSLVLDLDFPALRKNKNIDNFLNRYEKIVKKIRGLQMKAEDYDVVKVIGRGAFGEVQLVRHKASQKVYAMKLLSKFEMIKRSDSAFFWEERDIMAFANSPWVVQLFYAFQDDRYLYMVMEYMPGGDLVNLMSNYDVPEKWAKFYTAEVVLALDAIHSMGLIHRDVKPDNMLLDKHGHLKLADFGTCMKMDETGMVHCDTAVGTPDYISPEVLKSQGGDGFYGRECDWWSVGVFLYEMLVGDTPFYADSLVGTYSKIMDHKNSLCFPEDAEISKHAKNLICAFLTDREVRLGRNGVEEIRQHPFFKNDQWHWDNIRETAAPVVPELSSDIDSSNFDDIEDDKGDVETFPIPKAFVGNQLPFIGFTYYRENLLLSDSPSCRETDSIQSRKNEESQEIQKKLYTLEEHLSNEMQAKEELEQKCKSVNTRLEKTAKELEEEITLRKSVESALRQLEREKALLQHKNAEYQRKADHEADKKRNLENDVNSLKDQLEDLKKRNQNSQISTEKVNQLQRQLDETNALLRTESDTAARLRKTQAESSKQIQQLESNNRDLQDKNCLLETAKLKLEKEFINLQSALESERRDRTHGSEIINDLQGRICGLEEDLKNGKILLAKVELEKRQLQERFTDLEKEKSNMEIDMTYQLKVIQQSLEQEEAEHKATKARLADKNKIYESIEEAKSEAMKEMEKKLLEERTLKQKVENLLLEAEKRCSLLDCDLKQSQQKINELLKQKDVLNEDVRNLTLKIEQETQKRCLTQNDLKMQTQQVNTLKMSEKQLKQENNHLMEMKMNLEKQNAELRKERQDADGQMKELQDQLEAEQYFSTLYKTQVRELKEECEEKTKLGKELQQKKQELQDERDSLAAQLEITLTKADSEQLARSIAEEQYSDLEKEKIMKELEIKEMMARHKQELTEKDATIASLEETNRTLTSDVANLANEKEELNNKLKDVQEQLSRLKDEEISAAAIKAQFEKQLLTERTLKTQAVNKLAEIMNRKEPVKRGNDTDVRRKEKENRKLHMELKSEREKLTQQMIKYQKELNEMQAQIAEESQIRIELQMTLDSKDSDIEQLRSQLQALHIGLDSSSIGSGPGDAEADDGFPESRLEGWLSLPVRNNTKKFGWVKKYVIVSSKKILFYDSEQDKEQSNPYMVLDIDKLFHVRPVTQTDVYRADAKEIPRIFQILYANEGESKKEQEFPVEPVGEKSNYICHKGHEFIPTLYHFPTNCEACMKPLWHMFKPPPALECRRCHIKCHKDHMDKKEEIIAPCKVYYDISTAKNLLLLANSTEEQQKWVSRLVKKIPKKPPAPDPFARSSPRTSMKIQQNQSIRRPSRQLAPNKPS
T10 sequence (P08631 whole entry): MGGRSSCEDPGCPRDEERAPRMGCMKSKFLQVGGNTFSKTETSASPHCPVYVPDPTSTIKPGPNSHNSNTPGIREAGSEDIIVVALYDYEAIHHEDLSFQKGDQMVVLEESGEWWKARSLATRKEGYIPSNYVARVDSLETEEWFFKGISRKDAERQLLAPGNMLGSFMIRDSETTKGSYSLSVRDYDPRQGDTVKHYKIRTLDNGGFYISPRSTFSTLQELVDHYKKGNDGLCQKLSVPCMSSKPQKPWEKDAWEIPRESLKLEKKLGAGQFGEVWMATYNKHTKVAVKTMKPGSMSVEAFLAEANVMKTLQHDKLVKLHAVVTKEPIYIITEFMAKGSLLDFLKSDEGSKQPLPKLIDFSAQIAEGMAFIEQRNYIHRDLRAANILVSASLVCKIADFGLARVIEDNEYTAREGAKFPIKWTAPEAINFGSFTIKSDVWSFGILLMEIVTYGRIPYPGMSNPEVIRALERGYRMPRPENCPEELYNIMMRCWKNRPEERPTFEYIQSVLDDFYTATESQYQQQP
T29 sequence (Q8TDX7 whole entry): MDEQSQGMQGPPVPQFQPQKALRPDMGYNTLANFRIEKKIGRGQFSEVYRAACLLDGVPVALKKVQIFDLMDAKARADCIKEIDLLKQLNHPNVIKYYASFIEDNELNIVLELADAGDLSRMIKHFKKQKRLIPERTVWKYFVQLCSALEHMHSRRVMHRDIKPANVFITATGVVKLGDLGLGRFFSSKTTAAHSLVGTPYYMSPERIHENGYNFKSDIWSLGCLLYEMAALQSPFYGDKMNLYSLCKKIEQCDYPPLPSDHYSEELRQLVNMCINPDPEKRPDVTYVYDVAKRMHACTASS
T27 sequence (Q16539 whole entry): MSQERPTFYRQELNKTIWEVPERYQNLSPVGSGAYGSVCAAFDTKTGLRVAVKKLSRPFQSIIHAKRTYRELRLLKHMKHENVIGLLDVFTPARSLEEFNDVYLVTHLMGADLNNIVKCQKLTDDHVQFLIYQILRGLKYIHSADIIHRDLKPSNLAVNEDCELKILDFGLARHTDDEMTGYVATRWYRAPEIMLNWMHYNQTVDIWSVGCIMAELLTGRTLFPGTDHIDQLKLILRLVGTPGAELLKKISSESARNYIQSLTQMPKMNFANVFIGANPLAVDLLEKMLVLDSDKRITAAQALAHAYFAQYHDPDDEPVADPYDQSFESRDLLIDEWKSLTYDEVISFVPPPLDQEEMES
T35 sequence (Q9NY57 whole entry): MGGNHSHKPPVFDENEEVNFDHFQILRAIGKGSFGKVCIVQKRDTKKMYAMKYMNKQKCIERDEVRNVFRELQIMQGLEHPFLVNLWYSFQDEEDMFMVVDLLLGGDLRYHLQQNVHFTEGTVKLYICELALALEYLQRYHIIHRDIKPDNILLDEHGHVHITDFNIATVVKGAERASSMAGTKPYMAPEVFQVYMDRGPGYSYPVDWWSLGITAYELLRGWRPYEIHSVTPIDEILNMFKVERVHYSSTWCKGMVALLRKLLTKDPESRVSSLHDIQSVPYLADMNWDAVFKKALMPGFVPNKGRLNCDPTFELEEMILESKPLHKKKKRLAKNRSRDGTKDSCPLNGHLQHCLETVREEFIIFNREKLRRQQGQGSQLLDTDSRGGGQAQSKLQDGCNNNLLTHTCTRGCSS

Question: What does the source list for `O=C(O)c1cc(C(F)(F)F)ccc1NCCc1c[nH]c2cc(Br)ccc12` [Compound 5, 2-((2-(6-Bromo-1H-indol-3-yl)ethyl)amino)−5-(trifluoromethyl)benzoic Acid]?
Answer: activity at 10 µM [1]: 91.2 ± 1.2%; activity at 10 µM [2]: 82.1 ± 0.2%; activity at 10 µM [3]: 74.5 ± 3.3%; activity at 10 µM [4]: 90 ± 2%; activity at 10 µM [5]: 106.8 ± 0.3%; activity at 10 µM [6]: 108 ± 1.4%; activity at 10 µM [7]: 90.2 ± 1.5%; activity at 10 µM [8]: 97.8 ± 0.2%; activity at 10 µM [9]: 65.1 ± 1.6%; activity at 10 µM [10]: 86.2 ± 0.4%; activity at 10 µM [11]: 91.1 ± 0.8%; activity at 10 µM [12]: 89.6 ± 2%; activity at 10 µM [13]: 63.4 ± 6.7%; activity at 10 µM [14]: 90.7 ± 1.5%; activity at 10 µM [15]: 76.2 ± 2.6%; activity at 10 µM [16]: 102 ± 3.7%; activity at 10 µM [17]: 95.2 ± 1.6%; activity at 10 µM [18]: 100.9 ± 0.9%; activity at 10 µM [19]: 115 ± 4.5%; activity at 10 µM [20]: 95.2 ± 1.8%; activity at 10 µM [21]: 93.3 ± 0.4%; activity at 10 µM [22]: 93.4 ± 0.3%; activity at 10 µM [23]: 104 ± 2.4%; activity at 10 µM [24]: 69.1 ± 1%; activity at 10 µM [25]: 96.2 ± 1%; activity at 10 µM [26]: 140 ± 2.3%; activity at 10 µM [27]: 124.8 ± 0.6%; activity at 10 µM [28]: 117 ± 3.3%; activity at 10 µM [29]: 80.2 ± 0.8%; activity at 10 µM [30]: 69.6 ± 1.3%; activity at 10 µM [31]: 91.3 ± 0.5%; activity at 10 µM [32]: 107 ± 1.1%; activity at 10 µM [33]: 105 ± 1.5%; activity at 10 µM [34]: 85.1 ± 4.1%; activity at 10 µM [35]: 154.6 ± 0.7%; activity at 10 µM [36]: 92.4 ± 0.6%; activity at 10 µM [37]: 93.8 ± 0.7%
